Laboratory results taken from paper PMC9027957, “Interspecies Comparisons of the Effects of Potential Antiviral 3-Amidinophenylalanine Derivatives on Cytochrome P450 1A2 Isoenzyme” (Veterinary Sciences, 2022).

Legend:
[1] = tested on: SARS-CoV-2; parameters: method as in PMID 32703818; details: infected human airway epithelial Calu 3 cells, dose-dependent; cited from earlier work
[2] = 60 min microsomal stability assay (UPLC-MS/MS), cynomolgus monkey liver microsomes; type: in vitro ADME; details: 50 µM
Method: (§1) Rat, beagle (Gibco, Biocenter, Szeged, Hungary), and cynomolgus monkey (Primacyt, Schwerin, Germany) liver microsomes were exposed to inhibitors MI-432, MI-463, MI-482, or MI-1900 at 50 µM for 60 min. The final microsomal protein concentration in the suspension was 0.6 mg/mL in each case. The reaction buffer (100 mM phosphate buffer pH 7.4) also contained 1 mM nicotinamide adenine dinucleotide phosphate (NADPH), 5 mM MgCl2, 10 mM glucose-6-phosphate (G6P), and 2 IU/mL glucose-6-phosphate dehydrogenase (G6PD). The reaction was terminated by the addition of ice-cold acetonitrile (ACN) with the ratio of sample ACN volume = 1:2. The precipitated protein was removed by centrifugation at 10,000× g for 10 min, and the supernatants were used for subsequent analyses.
(§2) The determination of all analytes was carried out using an UPLC/MS/MS system, which consisted of an HPLC apparatus (SCIEX ExionLC^TM UPLC, Framigham, MA, USA) and a SCIEX Qtrap 4500 triple-quadrupole mass spectrometer (Framigham, MA, USA) equipped with a SCIEX Turbo V electrospray ionization source. The HPLC columns used were LiChrospher RP Select B (125 × 4.0 mm, 5.0 μm, C8 stationary phase). Next, 0.1% trifluoroacetic acid in ultra-purified water (A) and acetonitrile (B) were used as mobile phases for chromatographic separations applying a gradient elution. The HPLC gradient program was the following: between 0 and 10 min, a ratio of 70% A and 30% B; from 10 to 20 min, linearly increasing to a ratio of 50% A and 50% B; from 20 to 21 min, maintained at a ratio of 50% A and 50% B; from 21 to 22 min, linearly decreasing back to a ratio of 70% A and 30% B; and between 22 min and 30 min, maintained at a ratio of 70% A and 30% B. The run time was 30 min, the column temperature was adjusted to 35 °C, and the flow rate was 1 mL/min.

[3] = 60 min microsomal stability assay (UPLC-MS/MS), beagle liver microsomes; type: in vitro ADME; details: 50 µM
Method: as §1, §2

[4] = target: T1, CYP1A2 (Macaca fascicularis, UniProt O77809); assay: CYP1A2 fluorometric activity assay in cynomolgus monkey hepatic microsomes; type: in vitro ADME; parameters: cynomolgus monkey microsomal suspension (Primacyt, Schwerin, Germany, protein concentration: 5 mg/mL); tissue Primacyt, Schwerin, Germany; host or cells: liver (hepatic microsomes)
T1 sequence (O77809 1-516): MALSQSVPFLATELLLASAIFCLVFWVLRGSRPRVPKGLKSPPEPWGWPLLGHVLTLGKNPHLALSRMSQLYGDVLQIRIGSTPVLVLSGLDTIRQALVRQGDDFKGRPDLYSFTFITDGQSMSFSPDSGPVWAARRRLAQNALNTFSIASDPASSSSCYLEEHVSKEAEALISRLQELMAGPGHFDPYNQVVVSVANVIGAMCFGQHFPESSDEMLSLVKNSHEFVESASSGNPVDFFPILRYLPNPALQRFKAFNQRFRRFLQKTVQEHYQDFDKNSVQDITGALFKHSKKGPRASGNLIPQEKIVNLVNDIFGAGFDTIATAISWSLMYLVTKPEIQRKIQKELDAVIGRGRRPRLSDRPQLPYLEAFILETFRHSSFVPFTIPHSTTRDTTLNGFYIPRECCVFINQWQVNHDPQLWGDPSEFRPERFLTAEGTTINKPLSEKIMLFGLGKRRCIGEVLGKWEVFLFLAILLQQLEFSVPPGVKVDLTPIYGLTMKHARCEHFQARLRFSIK
Method: The Biovision CYP assay (BioVision, Inc., Kampenhout, Belgium) utilizes a non-fluorescent CYP1A2 substrate capable of transforming into a highly fluorescent metabolite, which can be detected in the visible range. α-naphthoflavone was used as a CYP1A2 reference inhibitor at 6 µM during the experiments. Rat (Sprague–Dawley) and beagle (Gibco, Biocenter, Szeged, Hungary, protein concentration: 20 mg/mL) hepatic microsomal preparations were prepared separately by mixing 25 µL of the obtained rat or beagle microsomal suspension with 2425 µL assay buffer and with 50 µL NADPH generating system (100×). In the case of the cynomolgus monkey microsomal suspension (Primacyt, Schwerin, Germany, protein concentration: 5 mg/mL), the following volumes were applied: in addition to 100 µL of monkey microsomal suspension, the amount of assay buffer and the NADPH generating system were adjusted in order to ensure the original ratios of these components to reach a final volume of 2500 µL. Rat, beagle, and cynomolgus monkey microsomal suspension aliquots (50 µL) were treated with the protease inhibitor 20 µL, 0–1000 µM), the reference compound α-naphthoflavone (20 µL, 30 µM), or the assay buffer without test compounds (20 µL, background control) for 15 min at 37 °C. After incubation, 30 µL of the appropriate CYP1A2 substrate/NADP+ mixture was added to each well, yielding a final reaction volume of 100 µL/well. The protein contents of the obtained microsomes were analysed using bicinchoninic acid protein assay kit (Pierce BCA kit, Thermo Fisher Scientific, Waltham, MA, USA). […] The fluorescence intensities were measured with a fluorometer (Victor X2 2030, Perkin Elmer, Waltham, MA, USA), using λEx/Em = 406/468 nm.

[5] = 60 min microsomal stability assay (UPLC-MS/MS), rat liver microsomes; type: in vitro ADME; details: 50 µM
Method: as §1, §2

[6] = target: T1, CYP1A2; details: 2 h, 50 µM
Method: For the measurements of CYP1A2 activities, hepatocytes were grown on 24-well collagen-coated membrane inserts (Costar Transwell-PTFE membrane, 6.5 mm, pore size: 0.4 µm, Merck, Darmstadt, Germany). […] The determination of the CYP1A2 activities were performed using the P450-Glo CYP450 Assay (Promega, Madison, WI, USA) according to the manufacturer’s instructions.

Compound	SARS-CoV-2 titers [1]	depletion percentage of the parent compound ([2]; cynomolgus monkey, pH 7.4) [%]	depletion percentage of the parent compound ([3]; beagle, dog, pH 7.4) [%]	IC50 [4] [nM]	CYP1A2 in the cynomolgus monkey microsomal model ([4]; microsomes)	depletion percentage of the parent compound ([5]; Sprague-Dawley, rat, pH 7.4) [%]	CYP1A2 activity in cynomolgus monkey hepatocytes [6]	depletion percentage of the parent compound ([2]; monkey microsomes, 0.6 mg/mL protein, mean ± SD (n = 3)) [%]	depletion percentage of the parent compound ([3]; beagle microsomes, 0.6 mg/mL protein, mean ± SD (n = 3)) [%]	CYP1A2 in the cynomolgus monkey microsomal model ([4]; inhibitors at 50 µM)	depletion percentage of the parent compound ([5]; rat microsomes, 0.6 mg/mL protein, mean ± SD (n = 3)) [%]
N=C(N)c1cccc(C[C@H](NS(=O)(=O)c2cccc(-c3ccc(Cl)cc3Cl)c2)C(=O)N2CCC(CCN)CC2)c1 [MI-432]	reduced	19.6 ± 5.8	23.8 ± 7	1300 ± 140	inhibited	28 ± 3.1	significantly decrease the activity of CYP1A2				
COc1ccc(-c2cccc(S(=O)(=O)N[C@@H](Cc3cccc(C(=N)N)c3)C(=O)N3CCN(C(=O)NC4CCCCC4)CC3)c2)c(OC)c1 [MI-1900]	reduced			1100 ± 800			significantly decrease the activity of CYP1A2	26.7 ± 10.8	23.7 ± 11.1	inhibited	30.7 ± 11.7
